# In patent US20140190496A1, “METHODS AND DEVICES FOR COMPOUND DELIVERY” (priority 2012, published 2014):
# Values joined by “and” are separate entries in the source; they are usually repeats but may differ in a detail not shown here. Equal entries are not always repeated.
# Key:
# [1] = Aerosol particle size from test airway apparatus with stainless steel foil heater element; assay type: physicochemical; conditions: dose 1 mg
# Text: A hole to deposite drug (2706a) is provided and foil is shown (2708a). Brass contacts (2710a) are provided.
# [2] = Aerosol particle size from test apparatus with wire coil heater element; assay type: physicochemical; conditions: stainless steel coil heater, 3.5 coils; air flow 2 Liters/min; dose 1 mg; 2.5 Amps; 1 second
# [3] = Particle size diameter of aerosols from ENT-100-A/B/C devices with wire coil heater elements and bypass inlets; assay type: physicochemical; conditions: 1 sec, listed as propylene glycol formulation
# Text: This example describes the particle size diameters (PSD) of aerosols generated from a device comprising a heater element comprising a wire coil. […] The “A Coil” comprises a stretch of coil followed by a straight lead on either end of the coil which connects to the brass contacts. The “B Coil” comprises a stretch of coil, wherein the coil itself connects to the brass contacts.
# [4] = Particle size diameter, ENT-100-D, heater element leads lengthened, with or without MARK V adder; assay type: physicochemical; conditions: foam replaced w/SS screen, flow 2.04-2.06 LPM, 2 amps
# Text: This example describes the particle size diameters (PSD) of aerosols generated from a heater element as described in FIG. 36. The length of the leads in this example is 0.70 inches (about 17.78 mm). The heater element is inserted into the device depicted in FIG. 31D. […] In this example, the liquid formulation comprises propylene glycol and it wicks onto the ends of the wire of the heater element and onto the brass contacts.
# [5] = Effect of gravity (device rotation) on particle size diameter, ENT-100-D; assay type: physicochemical; conditions: ENT-100-D loaded with 2 mg; device rotated 90 degrees in all dimensions from baseline
# Text: The device is rotated 90 degrees in all dimensions from a stable baseline position. […] As a result, the device produces particles of a consistent size regardless of the orientation in space of the device.
# [6] = cited from earlier work
Structure (SMILES),"Particle Size Diameter (microns) ([1]; heater element thickness 0.0005 inches, air flow 1 Liters/min, 6 Amps, heating 1 second)","Particle Size Diameter (microns) ([1]; heater element thickness 0.0005 inches, air flow 1 Liters/min, 8 Amps, heating 0.5 seconds)","Particle Size Diameter (microns) ([1]; heater element thickness 0.001 inches, air flow 1 Liters/min, 8 Amps, heating 0.7 seconds)","Particle Size Diameter (microns) ([1]; heater element thickness 0.001 inches, air flow 3 Liters/min, 7 Amps, heating 1 second)","Particle Size Diameter (microns) ([1]; heater element thickness 0.001 inches, air flow 3 Liters/min, 10 Amps, heating 1 second)","Particle Size Diameter (microns) ([1]; heater element thickness 0.001 inches, air flow 6 Liters/min, 10 Amps, heating 1 second)","Particle Size Diameter (microns) ([1]; heater element thickness 0.001 inches, air flow 12 Liters/min, 10 Amps, heating 1 second)",Particle Size Diameter (microns) [2],"PSD (microns) ([3]; B Coil, dose 2 mg, 2.0 amps, heater element moved aft, B configuration (total flow 12 LPM), flow 1.5-1.60 LPM, flow 1.5 LPM)","PSD (microns) ([3]; B Coil, dose 2 mg, 2.0 amps, heater element moved aft, B configuration (total flow 12 LPM), flow 1.5-1.60 LPM, flow 1.60 LPM)","PSD (microns) ([3]; ENT-100-B with B Coil, dose 2 mg, 2.0 amps, bypass untaped, total flow ~8.5 LPM, flow 1.5-1.52 LPM, flow 1.5 LPM)","PSD (microns) ([3]; ENT-100-B with B Coil, dose 2 mg, 2.0 amps, with stainless steel (SS) screen to even flow, flow 1.55-1.56 LPM, flow 1.56 LPM)","PSD (microns) ([3]; ENT-100-C, new heater element .032 ID 0.100 stretch, 2 mg dose, flow 2.04 LPM, 2.6 amps)",PSD (microns) ([4]; flow 2.04 LPM),PSD (microns) ([4]; flow 2.05 LPM),PSD (microns) ([4]; flow 2.06 LPM),particle size diameter at each rotation [5],time to achieve peak increments of plasma nicotine concentration ([6]; smoking a cigarette) [min],peak increments of plasma nicotine concentration ([6]; smoking a single cigarette) [ng/mL]
"CC(O)CO (stereo not shown) [PG, propylene glycol]",2.1-3 microns,2,1,1.8 microns and 2 microns and 1.5-1.8 microns and 1.4-1.8 microns,1 microns and 0.9 microns,0.6 microns and 0.6-0.8 microns,0.5,1.5-2.2 microns,1.7-1.8 microns,1.7-1.75 microns,1.8-1.9 microns,2.6-2.9 microns,2.0-2.5 microns and 2.0-2.2 microns and 2.1-2.3 microns and 2.1-2.2 microns,2.7-3.0 microns and 2.8-3.0 microns,2.6-2.8 microns,3.0-3.1 microns,found not to change,,
CN1CCCC1c1cccnc1 (stereo not shown) [nicotine],,,,,,,,,,,,,,,,,,≤ 10,5 to 30
